The text below walks through data of patent US8697692B2, “Pyrrolo [3,2-c] pyridine-4-one 2-indolinone protein kinase inhibitors” (Shanghai Hengrui Pharmaceutical Co., Ltd., priority 2006, dated 2014).

Read-outs that look alike come from different tables or passages of the source.

The assay has as its system A431 cell. Nature of the assay: Cell Proliferation Inhibition EGFR Assay (SRB method). It is filed as cell-based, homo sapient. Particulars: Homo sapiens, read-out: IC50 (A431). From the text: The following in vitro assay may be used to determine the level of activity and effect of different compounds of the present invention on the proliferation inhibition (cell toxic) of […] growth factor receptor (EGFR) high expressing homo […] cancer cell-A431 cell. The cellular assay described here measure the compounds of their anti-angiogenesis and proliferation inhibition activity and effect through EGFR on the cancer cells in vitro. The effect and activity is represented by the IC50 value that kills the cancer cell. […] The homo […] highly express EGFR are chosen and seeded to 96-well cell culture plate at a suitable concentration (exp 5000 cells/ml medium). The cells then are cultured in carbon dioxide (CO2) incubator till when they confluence to about 85%. Then, the cell culture medium is replaced by fresh one with tested compounds added in it at serial concentrations (general 6 to 7 concentrations). Then the cells are put back to the culture and cultured for continuous 72 hours. 72 hours later, the cell exposed to compounds and control cell are assayed for their proliferation using Sulforhodamine B (SRB) method. Compounds IC50 on tested cells are calculated by the data of inhibition rates of serial concentrations of the tested compounds. • a. Dimethyl sulfoxide (Sinophma chemical reagent company, catalog No. T20050806) • b. A431 cells (Purchased from Institute of biochemistry and cell biology) • c. Falcon 100 mm cell culture plates (Baton Dickison Labware, Baton Dickison and company, • Catalog No. 18677) • d. coming 96-well culture cluster (Corning Incorporated, Catalog No. 3599) • e. Fisher Pipette (Fisher scientific, Catalog No. 03-692-164) • f. DMEM/F12 cell medium (Gibco, Catalog No. 12400-024) • g. Fetal bovine serum, origin from Australia (Gibco, Catalog No. 10099-141) • h. […] Sulforhodamine B (Sigma, Catalog No. 3520-42-1) • k. Acetic Acid (Sinophma chemical reagent company, Catalog No. T20060508) • l. Trichloroacetic Acid (Sinophma chemical reagent company, Catalog No. T20060305) • m. Tris base (Amresco, Catalog No. 0826) • n. Class II A/B3 Biological safety cabinet (ThermoForma Catalog No. HB0053 03) • o. Series II water jacketed CO2 incubator (ThermoForma Model: 3111) • p. Centrifuge (Fisher Scientific Marathon 8 k, Catalog No. 0027-02) • q. Novastar Plate reader (BMG Labtech, Catalog No. 700 0081) • r. Orbital Shaker (Qilinbeier, Catalog No. TS-1) Protocol: […] Growing seeded 96-well plates at 37° C., 5% CO2, till 85% confluence. • 4. Prepare compounds stock solution, using DMSO solve candidate compounds to a concentration of 20 mM. […] Use cell culture medium (in this case, DMEM/F12+10% FBS) to dilute the compounds solution prepared above. Each DMSO serial concentration compound solution is diluted by 20 times with culture medium by adding 5 μl DMSO compound solution to 95 μl culture medium, then mix well by vortex. This promise that the DMSO concentration at that the A431 cell will exposed to will not surpass 0.5%. • 6. […] Each well added 180 μl medium, then add 20 μl medium solution of tested compounds prepared at step 5 to each well. For control group cell, add 20 μl culture medium containing 0.5% pure DMSO. […] Each 96-well plate, we can test 3 compounds with a control cell group. • 7. Put the culture plates back to incubator, culture for 72 hours at 37° C., 5% CO2. • 8. 72 hours later, remove cultures from incubator into sterile work area. • 9. Prepare fixative (50% Trichloroacetic Acid-TCA) by adding reagent grade water to the TCA, fix the cells by gently layering […] of cold TCA solution on top of the growth medium. • 10. Incubate plates for 1 hour at 4° C. and then rinse with water several times to remove TCA, serum proteins, etc. Plates are air dried and stored until use. Bland background optical density is measured in wells incubated with growth medium without cells. • 11. Use 10% acetic acid solution to prepare 0.4% Sulforhodamine B solution. Add 50 μl sulforhodamine B solution to each well of 96-well plates. • 12. […]
Background: In SRB staining, fixed cells bind dye roughly in proportion to their protein.

Setting [1] is: A-431, A431 cells, 72 hours exposure, Sulforhodamine B.

Broadly, the IC50 is the point on the concentration scale where inhibition reaches its midpoint.

As for `Cc1c(/C=C2\C(=O)Nc3ccc(NS(C)(=O)=O)cc32)[nH]c2c1C(=O)N(CCN1CCOCC1)CC2` [Example 22, N-{3-[3-Methyl-5-(2-mopholin-4-yl-ethyl)-4-oxo-4,5,6,7-tetrahydro-1H-pyrrolo[3,2-c]pyridine-2-ylmethylene]-2-oxo-2,3-dihydro-1H-indol-5-yl}-methanesulfonamide], the IC50 under setting [1] is 2850 nM.

As for `Cc1c(/C=C2\C(=O)Nc3ccc(NC=O)cc32)[nH]c2c1C(=O)N(CCN1CCCCC1)CC2` [Example 91, N-{3-[3-Methyl-4-oxo-5-(2-piperidin-1-yl-ethyl)-4,5,6,7-tetrahydro-1H-pyrrolo[3,2-c]pyridin-2-ylmethylene]-2-oxo-2,3-dihydro-1H-indol-5-yl}-formamide], under setting [1], the IC50 was found to be 120 nM.

Regarding `Cc1c(/C=C2\C(=O)Nc3ccc(F)cc32)[nH]c2c1C(=O)N(CCN1CCOCC1)CC2` [Example 15, 2-(5-Fluoro-2-oxo-1,2-dihydro-indol-3-ylidenemethyl)-3-methyl-5-(2-morpholin-4-yl-ethyl)-1,5,6,7-tetrahydro-pyrrolo[3,2-c]pyridin-4-one], the IC50 (A-431, 72 h) was found to be 1350 nM.

Turning to `CCN(CC)CCN1CCc2[nH]c(/C=C3\C(=O)Nc4c(NC(C)=O)cc(F)cc43)c(C)c2C1=O` [Example 6, N-{3-[5-(2-Diethylamino-ethyl)-3-methyl-4-oxo-4,5,6,7-tetrahydro-1H-pyrrolo[3,2-c]pyridine-2-ylmethylene]-5-fluoro-2-oxo-2,3-dihydro-1H-indol-7-yl}-acetamide], the IC50 under setting [1] was determined as 1380 nM.

Regarding `COCC(=O)Nc1cc2c(cc1F)/C(=C/c1[nH]c3c(c1-c1ccc(F)cc1)C(=O)NCC3)C(=O)N2` [Example 67, N-{5-Fluoro-3-[3-(4-fluoro-phenyl)-4-oxo-4,5,6,7-tetrahydro-1H-pyrrolo[3,2-c]pyridin-2-ylmethylene]-2-oxo-2,3-dihydro-1H-indol-6-yl}-2-methoxy-acetamide], the IC50 under setting [1] worked out at 2030 nM.

On to `Cc1c(/C=C2\C(=O)Nc3cccc(-c4cccc(Cl)c4F)c32)[nH]c2c1C(=O)N(CCN1CCOCC1)CC2` [Example 48, 2-[4-(3-Chloro-2-fluoro-phenyl)-2-oxo-1,2-dihydro-indol-3-ylidenemethyl]-3-methyl-5-(2-morpholin-4-yl-ethyl)-1,5,6,7-tetrahydro-pyrrolo[3,2-c]pyridin-4-one], for which the IC50 under setting [1] was determined as 6110 nM.

On to `Cc1c(/C=C2\C(=O)Nc3c(Br)cc(F)cc32)[nH]c2c1C(=O)N(CCN1CCCCC1)CC2` [Example 90, 2-(7-Bromo-5-fluoro-2-oxo-1,2-dihydro-indol-3-ylidenemethyl)-3-methyl-5-(2-piperidin-1-yl-ethyl)-1,5,6,7-tetrahydro-pyrrolo[3,2-c]pyridin-4-one], for which the IC50 under setting [1] worked out at 270 nM.

In the case of `Cc1c(/C=C2\C(=O)Nc3ncc(Br)cc32)[nH]c2c1C(=O)N(CCN1CCCCC1)CC2` [Example 93, 2-(5-Bromo-2-oxo-1,2-dihydro-pyrrolo[2,3-b]pyridin-3-ylidenemethyl)-3-methyl-5-(2-piperidin-1-yl-ethyl)-1,5,6,7-tetrahydro-pyrrolo[3,2-c]pyridin-4-one], the IC50 under setting [1] is 1660 nM.

As to `O=C(CO)Nc1cc2c(cc1F)/C(=C/c1[nH]c3c(c1-c1ccc(F)cc1)C(=O)NCC3)C(=O)N2` [Example 65, N-{5-Fluoro-3-[3-(4-fluoro-phenyl)-4-oxo-4,5,6,7-tetrahydro-1H-pyrrolo[3,2-c]pyridin-2-ylmethylene]-2-oxo-2,3-dihydro-1H-indol-6-yl}-2-hydroxy-acetamide], under setting [1], the IC50 was determined as 3060 nM.

With `Cc1c(/C=C2\C(=O)Nc3cccc(-c4c(F)cccc4F)c32)[nH]c2c1C(=O)N(CCN1CCCCC1)CC2` [Example 63, 2-[4-(2,6-Difluoro-phenyl)-2-oxo-1,2-dihydro-indol-3-ylidenemethyl]-3-methyl-5-(2-piperidin-1-yl-ethyl)-1,5,6,7-tetrahydro-pyrrolo[3,2-c]pyridin-4-one], the IC50 under setting [1] came out at 530 nM.
